Results from BindingDB's records for patent US8592379 (Kyoto University, 2013).

Target: KiSS-1 receptor (Homo sapiens, UniProt Q969F8)
Test: Binding Assay

Sequence of KiSS-1 receptor (Q969F8 whole entry): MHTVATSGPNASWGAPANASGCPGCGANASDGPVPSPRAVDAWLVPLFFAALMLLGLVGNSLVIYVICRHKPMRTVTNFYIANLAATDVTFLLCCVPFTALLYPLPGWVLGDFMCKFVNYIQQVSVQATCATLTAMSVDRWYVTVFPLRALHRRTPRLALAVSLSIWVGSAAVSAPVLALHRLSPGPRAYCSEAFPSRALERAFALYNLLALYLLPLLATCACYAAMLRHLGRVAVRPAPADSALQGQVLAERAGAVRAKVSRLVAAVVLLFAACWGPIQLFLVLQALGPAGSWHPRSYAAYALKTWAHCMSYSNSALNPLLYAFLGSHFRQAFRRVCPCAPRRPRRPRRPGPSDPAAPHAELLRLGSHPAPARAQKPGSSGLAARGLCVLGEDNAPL

- IC50: 240 pM
SMILES: CNC[C@@H](O)CC(CC(C)C)C(C)=O (stereo partly specified) [US8592379, 37]
